Results: US6544533B2, “10-hydroxy-2-decenoic acid compounds for promoting desquamation/epidermal renewal of the skin and/or combating skin aging” (Societe L'Oreal S.A., priority 1998, dated 2003)

The compounds below were run on differentiated human keratinocytes (assay: in vitro screening of desquamating activity: release of corneocytes (cellular detachment index) counted by flow cytometry). Conditions: compounds at 5·10^−5 M, 60 minutes after addition.
Assay type: cell-based
Experimental: This test of in vitro screening of an agent which is active with regard to desquamation was carried out on differentiated human keratinocytes. The principle of the test is based on the fact that desquamation induces the release of corneocytes. The desquamating power of the test product increases as the number of corneocytes released increases.
The protocol of the test was as follows: beginning with biopsies of human skin, the keratinocytes obtained by separation from the epidermis were dissociated by enzymatic action with trypsin and were cultured at a concentration of 2·10^5 cell/ml. The growth and differentiation of the keratinocytes was obtained by culturing for 10 to 20 days in a specific medium. The activity of the test product was then evaluated after removal of the culture medium. To accomplish this, two samples were taken at T0 and T60, namely, before the addition of the test product and 60 minutes after this addition. The samples thus taken were analyzed with a flow cytometer in order to count the population of corneocytes. The flow cytometer made it possible to distinguish the populations of corneocytes and of keratinocytes by treatment with acridine orange, which is specific for cellular DNA.
The cellular detachment index was determined by the difference between T60 and T0. The same measurement was carried out for a control not comprising test product, because the experiment inevitably produces the release of corneocytes, even in the absence of active principles.
The test was carried out with compounds at a concentration of 5·10^−5M.

Compared with `COCCOCOCC(COC(=O)/C=C/CCCCCCCO)OC(=O)/C=C/CCCCCCCO` (stereo not drawn) [3-[(2-methoxyethoxy)methoxy]propyl 1,2-di(10-hydroxydec-2-enoate)], `O=C(/C=C/CCCCCCCO)OCC(COC(=O)/C=C/CCCCCCCO)OC(=O)/C=C/CCCCCCCO` [Propyl 1,2,3-tri(10-hydroxydec-2-enoate), propyl 1,2,3-tri(10-hydroxydec-2-enoate)] is higher in “% of activity with respect to the control composed of an identical culture in the absence of compound (cellular detachment index, T60 minus T0)” value: 124.16% for the first, 148.52% for the second.

In the case of `CCCCCCCC(=O)c1ccc(O)c(C(=O)O)c1` [Reference, 2-Hydroxy-5-octanoylbenzoic acid, reference compound], the “% of activity with respect to the control composed of an identical culture in the absence of compound (cellular detachment index, T60 minus T0)” value is reported as 91.95%.
